Data set [1] relates to CT26. Description: Antitumor immunity against mouse CT26 cells implanted in male BALB/c mouse model assessed as increase infiltration of CD8+ cells at 30 to 120 mg/kg, po. Format: functional, organism-based. Particulars: dose 30-120 mg/kg.
Data set [2] addresses Programmed cell death protein 1/Programmed cell death 1 ligand 1 (Homo sapiens, UniProt Q15116+Q9NZQ7). The data set is described as follows: Inhibition of PD-1/PD-L1 interaction (unknown origin) incubated for 90 min by TR-FRET assay. Format: protein-complex assay. Background: TR-FRET usually uses a lanthanide donor and a delayed reading to cut background.
Data set [3] can be described thus: Toxicity in male BALB/c mouse model mouse implanted in CT26 cells assessed as mortality at 120 mg/kg, po. Format: organism-based. Conditions: in vivo.
Data set [4] relates to RKO. Description: AUTAC (autophagy-targeting chimera ) activity in autophagy-lysosome mediated PD-L1 degradation in human RKO cells assessed as PD-L1 degradation at 0.5 uM using ECL as substrate incubated for 24 hrs in presence of Cycloheximide by immunoblot analysis. Format: cell-based. (In general: Immunoblotting shows a protein as a band on a membrane.)
For data set [5], the system named is RKO. Description: AUTAC (autophagy-targeting chimera ) activity in autophagy-lysosome mediated PD-L1 degradation in human RKO cells assessed as PD-L1 degradation at 10 uM using ECL as substrate incubated for 24 hrs in presence of pepstainA by immunoblot analysis. The data set is classed as cell-based.
The test system of data set [6] is RKO. The data set is described as follows: Induction of autophagy in human RKO cells assessed as increase LC3II expression at 1 uM incubated for 24 hrs in presence of 3-methyladenine by immunoblot analysis. Format: functional, cell-based.
Data set [7] has as its system RKO. Description: AUTAC (autophagy-targeting chimera) activity at PD-L1 in human RKO cells assessed as autophagy-lysosome mediated protein degradation by measuring reduced PD-L1 level at 1 uM incubated for 24 hrs by ECL substrate based Western blotting analysis relative to control. On the set-up: scale not given: the % may be the effect or the level left. Format: cell-based.

Data set [8] concerns CT26. Description: In vivo antitumor activity against mouse CT26 cells implanted in male BALB/c mouse model assessed reduced tumor growth oral administration once daily. Format: functional, organism-based. Particulars: dose 30-120 mg/kg.
Data set [9] concerns RKO. The data set is described as follows: AUTAC (autophagy-targeting chimera) activity at PD-L1 in human RKO cells assessed as autophagy-lysosome mediated protein degradation by measuring reduced PD-L1 level at 0.5 uM incubated for 24 hrs by ECL substrate based Western blotting analysis relative to control. Format: cell-based. On the set-up: scale not given: the % may be the effect or the level left.

The test system of data set [10] is RKO. The data set is described as follows: AUTAC (autophagy-targeting chimera ) activity in autophagy-lysosome mediated PD-L1 degradation in human RKO cells assessed as PD-L1 degradation at 50 uM using ECL as substrate incubated for 24 hrs in presence of chloroquine by immunoblot analysis. The data set is classed as cell-based.
In data set [11] the test system is CT26. Description: In vivo antitumor activity against mouse CT26 cells implanted in male BALB/c mouse model assessed as decrease PD-L1 in tumor tissue at 120 mg/kg, po incubated for overnight by immunohistochemistry. The data set is classed as functional, organism-based.
In data set [12] the test system is RKO. Description: AUTAC (autophagy-targeting chimera) activity at PD-L1 in human RKO cells assessed as autophagy-lysosome mediated protein degradation measured after 24 hrs by ECL substrate based Western blotting analysis. The data set is classed as cell-based. Conditions: dose 0.5-2 µM.
A short description of data set [13]: Toxicity in male BALB/c mouse model mouse implanted in CT26 cells assessed as body weight loss at 120 mg/kg, po. The data set is classed as organism-based. Conditions: in vivo.
In data set [14] the test system is RKO. Description: Induction of autophagosome lysosome fusion in human RKO cells transfected with Ad-mCherry-GFP-LC3B incubated for 24 hrs by inverted fluorescence microscope analysis. Format: functional, cell-based.
Data set [15] deals with RKO. Description: AUTAC (autophagy-targeting chimera ) activity in autophagy-lysosome mediated PD-L1 degradation in human RKO cells assessed as PD-L1 degradation at 0.5 uM using ECL as substrate incubated for 24 hrs in presence of 3-methyladenine by immunoblot analysis. The data set is classed as cell-based.
In data set [16] the test system is CT26. The data set is described as follows: In vivo antitumor activity against mouse CT26 cells implanted in male BALB/c mouse model assessed reduced tumor growth at 60 mg/kg oral administration once daily. Format: functional, organism-based.
The subject of data set [17] is HepG2. The data set is described as follows: Induction of VISTA degradation in human HepG2 cells assessed as decrease in VISTA protein level at 5 uM using ECL as substrate incubated for 1 hrs by immunoblot analysis. Format: cell-based.
For data set [18], the system named is RKO. The data set is described as follows: Upregulation of autophagy lysosome related Mitf gene expression in human RKO cells at 5 uM incubated for 24 hrs by qRT-PCR analysis. The data set is classed as functional, cell-based.
The test system of data set [19] is RKO. The data set is described as follows: Upregulation of autophagy lysosome related Atg9b gene expression in human RKO cells at 5 uM incubated for 24 hrs by qRT-PCR analysis. The data set is classed as functional, cell-based. For orientation: Real-time PCR tracks product formation cycle by cycle.
For data set [20], the system named is RKO. Description: Upregulation of autophagy lysosome related Lamp1 gene expression in human RKO cells at 5 uM incubated for 24 hrs by qRT-PCR analysis. Format: functional, cell-based.
Data set [21] relates to HepG2. Description: Induction of VISTA degradation in human HepG2 cells assessed as decrease in VISTA protein level at 5 uM using ECL as substrate incubated for 1 hrs by immunoblot analysis relative to control. Format: cell-based. Further details: scale not given: the % may be the effect or the level left.
The test system of data set [22] is RKO. The data set is described as follows: AUTAC (autophagy-targeting chimera) activity at PD-L1 in human RKO cells assessed as autophagy-lysosome mediated protein degradation by measuring protein level at 0.5 uM measured after 24 hrs by ECL substrate based Western blotting analysis relative to control. Format: cell-based.
In data set [23] the test system is RKO. Description: AUTAC (autophagy-targeting chimera) activity at PD-L1 in human RKO cells assessed as autophagy-lysosome mediated protein degradation by measuring protein level at 2 uM measured after 24 hrs by ECL substrate based Western blotting analysis relative to control. The data set is classed as cell-based.
Data set [24] deals with RKO. The data set is described as follows: AUTAC (autophagy-targeting chimera) activity at PD-L1 in human RKO cells assessed as autophagy-lysosome mediated protein degradation by measuring protein level at 4 uM measured after 24 hrs by ECL substrate based Western blotting analysis relative to control. Format: cell-based.
The subject of data set [25] is RKO. The data set is described as follows: AUTAC (autophagy-targeting chimera) activity at PD-L1 in human RKO cells assessed as autophagy-lysosome mediated protein degradation at 2 uM measured after 24 hrs by ECL substrate based Western blotting analysis. The data set is classed as cell-based.
Data set [26] has as its system RKO. Description: AUTAC (autophagy-targeting chimera) activity at PD-L1 in human RKO cells assessed as autophagy-lysosome mediated protein degradation by measuring protein level at 1 uM measured after 24 hrs by ECL substrate based Western blotting analysis relative to control. The data set is classed as cell-based.
In data set [27] the test system is RKO. The data set is described as follows: AUTAC (autophagy-targeting chimera) activity at PD-L1 in human RKO cells assessed as autophagy-lysosome mediated protein degradation at 4 uM measured after 24 hrs by ECL substrate based Western blotting analysis. Format: cell-based.
The test system of data set [28] is RKO. The data set is described as follows: AUTAC (autophagy-targeting chimera) activity at PD-L1 in human RKO cells assessed as autophagy-lysosome mediated protein degradation at 1 uM measured after 24 hrs by ECL substrate based Western blotting analysis. The data set is classed as cell-based.

Each structure is given as a SMILES string. Calls of active or inactive are those of the source. The calls are words filed in the database; no cut-off is given here. Bounds are passed on as bounds.

Chain of Programmed cell death protein 1/Programmed cell death 1 ligand 1 (Q15116 whole entry): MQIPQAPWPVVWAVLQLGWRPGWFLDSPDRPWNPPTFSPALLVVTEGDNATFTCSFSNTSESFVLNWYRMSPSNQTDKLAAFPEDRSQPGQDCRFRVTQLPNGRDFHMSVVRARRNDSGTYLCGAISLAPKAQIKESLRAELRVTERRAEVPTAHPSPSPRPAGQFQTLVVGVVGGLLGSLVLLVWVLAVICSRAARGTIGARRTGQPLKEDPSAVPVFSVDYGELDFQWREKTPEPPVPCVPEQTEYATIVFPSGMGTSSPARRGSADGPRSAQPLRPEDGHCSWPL
Chain of Programmed cell death protein 1/Programmed cell death 1 ligand 1 (Q9NZQ7 whole entry): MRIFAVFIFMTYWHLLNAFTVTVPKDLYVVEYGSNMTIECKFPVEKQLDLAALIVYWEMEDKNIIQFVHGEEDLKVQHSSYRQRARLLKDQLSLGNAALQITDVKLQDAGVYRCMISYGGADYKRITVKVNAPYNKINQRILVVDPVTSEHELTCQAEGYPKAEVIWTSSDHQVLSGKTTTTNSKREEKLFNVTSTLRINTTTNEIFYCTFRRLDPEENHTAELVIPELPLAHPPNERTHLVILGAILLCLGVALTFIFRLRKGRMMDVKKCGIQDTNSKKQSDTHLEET

As a reminder, the IC50 is the point on the concentration scale where inhibition reaches its midpoint. Take `Cc1c(-c2ccccc2)cccc1-c1nnc(Nc2cccc(CNCCOCCOCCOCCOCCNCc3cccc(Nc4nnc(-c5ccccc5)o4)c3)c2)o1`: the result in the data set with CT26 [1], in the data set with RKO [4], in the data set on RKO [5], in the data set with RKO [6], in the data set on RKO [10] and with CT26 [11] was Active. Besides, the result in the data set with RKO [14], in the data set with RKO [15] and in the data set on CT26 [16] was Active. The IC50 in data set [2] amounted to 22.8 nM. In addition, the Activity entry is “Non-toxic” in [3]; 90% in the data set with RKO [7]; “Dose-dependent-effect” with CT26 [8]; 70% with RKO [9]; “Dose-dependent-effect” in the data set on RKO [12]; “Non-toxic” in data set [13].
In the case of `Cc1c(-c2ccccc2)cccc1-c1nnc(Nc2cccc(CNCCOCCOCCOCCOCCNCc3cccc(-c4nc5ccc(-c6ccccc6)c(C)c5[nH]4)c3)c2)o1`, in the data set on HepG2 [17], the result was Active.
As to `OCCNCc1cccc(Nc2nnc(-c3ccccc3)o2)c1`, the result in the data set with RKO [18], in the data set on RKO [19] and in the data set on RKO [20] was Active. The IC50 in data set [2] is > 1000 nM.
The compound `Cc1c(-c2ccccc2)cccc1-c1nnc(Nc2cccc(CNCCOCCOCCNCc3cccc(Nc4nnc(-c5cccc(-c6ccccc6)c5C)o4)c3)c2)o1` gave an IC50 in data set [2] of 25.7 nM.
For `Cc1c(-c2ccccc2)cccc1-c1nnc(Nc2cccc(CNCCOCCOCCOCCNCc3cccc(-c4nc5ccc(-c6ccccc6)c(C)c5[nH]4)c3)c2)o1`, in the data set with HepG2 [17], the outcome was Active.
Regarding `Cc1c(-c2ccccc2)ccc2nc(-c3cccc(CNCCOCCOCCOCCOCCNCc4cccc(Nc5nnc(-c6ccccc6)o5)c4)c3)[nH]c12`, the Activity with HepG2 [21] turned out to be 87%. For the same compound, the outcome in the data set with HepG2 [17] was Active.
The like results for `Cc1c(-c2ccccc2)ccc2nc(-c3cccc(CNCCOCCOCCOCCNCc4cccc(Nc5nnc(-c6ccccc6)o5)c4)c3)[nH]c12` were, in that order, 89% and “Active”.
The compound `Cc1c(-c2ccccc2)cccc1-c1nnc(Nc2cccc(CNCCOCCNCc3cccc(Nc4nnc(-c5cccc(-c6ccccc6)c5C)o4)c3)c2)o1` returned an IC50 in data set [2] of 39.4 nM.
`CNc1cccc(CNCCOCCOCCOCCNCc2cccc(Nc3nnc(-c4cccc(-c5ccccc5)c4C)o3)c2)c1` came in with an IC50 in data set [2] of 22.3 nM. The Activity in the data set on RKO [22] is 93%; with RKO [23] it was 33%; with RKO [12], “Dose-dependent-effect”; in the data set on RKO [24], 28%.
Regarding `Cc1c(-c2ccccc2)cccc1-c1nnc(Nc2cccc(CNCCOCCOCCOCCOCCOCCNCc3cccc(Nc4nnc(-c5ccccc5)o4)c3)c2)o1`, the IC50 in [2] is 23 nM.
With `CNc1cccc(CNCCO)c1`, the result in the data set on RKO [18], in the data set on RKO [19] and in the data set on RKO [20] was Active. The IC50 in [2] is > 1000 nM.
Take `Cc1c(-c2ccccc2)cccc1-c1nnc(Nc2cccc(CNCCOCCOCCOCCNCc3cccc(Nc4nnc(-c5cccc(-c6ccccc6)c5C)o4)c3)c2)o1`: the outcome in the data set on RKO [25] was Active. In addition, 24.6 nM corresponded to half-maximal inhibition in [2] (IC50). Further, the Activity result with RKO [12] was “Dose-dependent-effect”.
For the compound `Cc1c(-c2ccccc2)cccc1-c1nnc(Nc2cccc(CNCCOCCOCCOCCNCc3cccc(Nc4nnc(-c5ccccc5)o4)c3)c2)o1`, the Activity in the data set on RKO [26] was 72%; in the data set on RKO [22], 90%; in the data set with RKO [23], 44%; with RKO [12] it was “Dose-dependent-effect”; with RKO [24] it was 4%. Also, the result with RKO [27] and with RKO [28] was Active. Also, half-maximal inhibition in data set [2] (IC50) required 28.4 nM.
In turn, `Cc1c(-c2ccccc2)cccc1-c1nnc(Nc2cccc(CNCCOCCOCCNCc3cccc(Nc4nnc(-c5ccccc5)o4)c3)c2)o1` had a half-inhibitory concentration (IC50) in [2] of 30.6 nM.

(Values after ChEMBL document CHEMBL6083257, “Discovery of small molecules for autophagy-lysosome degradation of immune checkpoint proteins” (Eur J Med Chem, 2024).)
